Test results: patent US9580463B2 (BRISTOL-MYERS SQUIBB COMPANY, priority 2013, dated 2017)

The compounds below were run on HCV genotype 1b (Con1) replicon in HUH-7 cells (assay: HCV replicon luciferase reporter assay, genotype 1b). Settings: Hepatitis C virus, 72 h, genotype 1b replicon, 3 days incubation, read-out: LE_1b (EC50).
Type: cell-based
Description: An HCV replicon whole cell system was established as described by Lohmann V, Korner F, Koch J, Herian U, Theilmann L, Bartenschlager R., Science 285(5424):110-3 (1999) and modified to introduce a luciferase reporter, as first described by Krieger et al (Krieger N, Lohmann V, and Bartenschlager R, J. Virol. 75(10):4614-4624 (2001)). CDNA encoding a humanized form of the Renilla luciferase gene and a linker sequence fused directly to the 3′-end of the luciferase gene were introduced into the replicon construct using an Asc1 restriction site located in core, directly upstream of the neomycin marker gene. The adaptive mutation at position 1179 (serine to isoleucine) was also introduced (Blight K J, Kolykhalov, A A, Rice, C M, Science 290(5498):1972-1974). A stable cell line constitutively expressing this HCV replicon construct was generated by first linearizing plasmid DNAs with ScaI. RNA transcripts were synthesized in vitro using the T7 MegaScript transcription kit (Ambion, Austin, Tex.) according to manufacturer's directions. In vitro transcripts of the cDNA were transfected into the human hepatoma cell line, HUH-7. […] Resulting cell lines were characterized for positive and negative strand RNA production and protein production over time. […]
HCV replicon luciferase assays were developed to monitor the inhibitory effects of compounds described in the disclosure on HCV genotypes 1a and 1b viral replication. HUH-7 cells, constitutively expressing the HCV replicon, were grown in Dulbecco's Modified Eagle Media (DMEM) (Gibco-BRL) containing 10% Fetal calf serum (FCS) (Sigma) and 1 mg/mL G418 (Gibco-BRL). Compounds were serially diluted 3 folds in DMSO for a twenty-point titration and subsequently transferred to sterile 384-well tissue-culture treated plates (Corning cat #3571). The plates were then seeded with 50 μL of cells at a density of 3.0×10^3 cells/well in DMEM containing 4% FCS (final DMSO concentration at 0.5%). After 3 days incubation at 37° C., cells were analyzed for Renilla Luciferase activity using the EnduRen as substrate (Promega cat #E6485). The EnduRen substrate was diluted in DMEM and then added to the plates to a final concentration of 7.5 μM. The plates were incubated for 2 hrs at 37° C. and then read immediately for 30 seconds with Viewlux Imager (PerkinElmer) using a luminescence program. To assess cytotoxicity of compounds, CC50 values were generated by multiplexing the EnduRen-containing plates with Cell Titer-Blue (Promega, cat # G8082). Cell-Titer Blue (3 μL) was added to each well and incubated for 8 hrs at 37° C. The fluorescence signal from each well was read, with an excitation wavelength at 525/10 nm and an emission wavelength of 598/10 nm, using the Viewlux Imager.
The EC50 values for compounds were calculated by using a four-parameter logistic equation: y=A+((B−A)/(1+((C/x)^D))), where A and B denotes minimal and maximal % inhibition, respectively, C is the EC50, D is the hill slope and x represents compound concentration.

Compound	EC50
CCOc1cnc(O[C@@H]2C[C@H]3C(=O)N[C@]4(C(=O)NS(=O)(=O)C5(C)CC5)C[C@H]4/C=C\CC[C@H](C)C[C@@H](COC)[C@H](NC(=O)OC(C)(C)C(C)(F)F)C(=O)N3C2)c2ccc(OC)cc12 [Compound 1067, 3,3-difluoro-2-methylbutan-2-yl ((2R,6S,7R,9S,13aS,14aR,16aS,Z)-2-((4-ethoxy-6-methoxyisoquinolin-1-yl)oxy)-7-(methoxymethyl)-9-methyl-14a-(((1-methylcyclopropyl)sulfonyl)carbamoyl)-5,16-dioxo-1,2,3,5,6,7,8,9,10,11,13a,14,14a,15,16,16a-hexadecahydrocyclopropa[e]pyrrolo[1,2-a][1,4]diazacyclopentadecin-6-yl)carbamate]	500 pM

Same assay, conditions: Hepatitis C virus, 72 h, genotype 1b replicon, 3 days incubation, read-out: LE_1b (EC50, range)

Compound	EC50
CCOc1ccc2nc(C(F)(F)F)c(O[C@@H]3C[C@H]4C(=O)N[C@]5(C(=O)NS(=O)(=O)C6(C)CC6)C[C@H]5/C=C\CC[C@H](C)C[C@@H](COC)[C@H](NC(=O)OC(C)(C)C)C(=O)N4C3)nc2c1 [Compound 1049, tert-butyl ((2R,6S,7R,9S,13aS,14aR,16aS,Z)-2-((7-ethoxy-3-(trifluoromethyl)quinoxalin-2-yl)oxy)-7-(methoxymethyl)-9-methyl-14a-(((1-methylcyclopropyl)sulfonyl)carbamoyl)-5,16-dioxo-1,2,3,5,6,7,8,9,10,11,13a,14,14a,15,16,16a-hexadecahydrocyclopropa[e]pyrrolo[1,2-a][1,4]diazacyclopentadecin-6-yl)carbamate]	1010 to 5000 pM
COC[C@@H]1C[C@@H](C)CC/C=C\[C@@H]2C[C@@]2(C(=O)NS(=O)(=O)C2(C)CC2)NC(=O)[C@@H]2C[C@@H](Oc3nc(OC)c4c(OC)cccc4n3)CN2C(=O)[C@H]1NC(=O)OC(C)(C)C(F)(F)F [Compound 1059, 1,1,1-trifluoro-2-methylpropan-2-yl ((2R,6S,7R,9S,13aS,14aR,16aS,Z)-2-((4,5-dimethoxyquinazolin-2-yl)oxy)-7-(methoxymethyl)-9-methyl-14a-(((1-methylcyclopropyl)sulfonyl)carbamoyl)-5,16-dioxo-1,2,3,5,6,7,8,9,10,11,13a,14,14a,15,16,16a-hexadecahydrocyclopropa[e]pyrrolo[1,2-a][1,4]diazacyclopentadecin-6-yl)carbamate]	35000 to 620000 pM
CCOc1cnc(O[C@@H]2C[C@H]3C(=O)N[C@]4(C(=O)NS(=O)(=O)C5(C)CC5)C[C@H]4/C=C\CC[C@H](C)C[C@@H](COC)[C@H](NC(=O)OC(C)(C)C)C(=O)N3C2)c2ccc(OC)cc12 [Compound 1063, tert-butyl ((2R,6S,7R,9S,13aS,14aR,16aS,Z)-2-((4-ethoxy-6-methoxyisoquinolin-1-yl)oxy)-7-(methoxymethyl)-9-methyl-14a-(((1-methylcyclopropyl)sulfonyl)carbamoyl)-5,16-dioxo-1,2,3,5,6,7,8,9,10,11,13a,14,14a,15,16,16a-hexadecahydrocyclopropa[e]pyrrolo[1,2-a][1,4]diazacyclopentadecin-6-yl)carbamate]	100 to 500 pM
CCOc1cnc(O[C@@H]2C[C@H]3C(=O)N[C@]4(C(=O)NS(=O)(=O)C5(C)CC5)C[C@H]4/C=C\CC[C@@H](C)C[C@@H](COC)[C@H](NC(=O)OC(C)(C)C)C(=O)N3C2)c2ccc(OC)cc12 [Compound 1064, tert-butyl ((2R,6S,7R,9R,13aS,14aR,16aS,Z)-2-((4-ethoxy-6-methoxyisoquinolin-1-yl)oxy)-7-(methoxymethyl)-9-methyl-14a-(((1-methylcyclopropyl)sulfonyl)carbamoyl)-5,16-dioxo-1,2,3,5,6,7,8,9,10,11,13a,14,14a,15,16,16a-hexadecahydrocyclopropa[e]pyrrolo[1,2-a][1,4]diazacyclopentadecin-6-yl)carbamate]	100 to 500 pM
COC[C@@H]1C[C@@H](C)CC/C=C\[C@@H]2C[C@@]2(C(=O)NS(=O)(=O)C2(C)CC2)NC(=O)[C@@H]2C[C@@H](Oc3nc4cc(OC(C)C)ccc4nc3C(F)(F)F)CN2C(=O)[C@H]1NC(=O)OC(C)(C)C(F)(F)F [Compound 1057, 1,1,1-trifluoro-2-methylpropan-2-yl ((2R,6S,7R,9S,13aS,14aR,16aS,Z)-2-((7-isopropoxy-3-(trifluoromethyl)quinoxalin-2-yl)oxy)-7-(methoxymethyl)-9-methyl-14a-(((1-methylcyclopropyl)sulfonyl)carbamoyl)-5,16-dioxo-1,2,3,5,6,7,8,9,10,11,13a,14,14a,15,16,16a-hexadecahydrocyclopropa[e]pyrrolo[1,2-a][1,4]diazacyclopentadecin-6-yl)carbamate]	5010 to 35000 pM
COC[C@@H]1C[C@@H](C)CC/C=C\[C@@H]2C[C@@]2(C(=O)NS(=O)(=O)C2(C)CC2)NC(=O)[C@@H]2C[C@@H](Oc3nc4cc(OC(C)C)ccc4nc3C(F)(F)F)CN2C(=O)[C@H]1NC(=O)OC(C)(C)C(C)(F)F [Compound 1055, 3,3-difluoro-2-methylbutan-2-yl ((2R,6S,7R,9S,13aS,14aR,16aS,Z)-2-((7-isopropoxy-3-(trifluoromethyl)quinoxalin-2-yl)oxy)-7-(methoxymethyl)-9-methyl-14a-(((1-methylcyclopropyl)sulfonyl)carbamoyl)-5,16-dioxo-1,2,3,5,6,7,8,9,10,11,13a,14,14a,15,16,16a-hexadecahydrocyclopropa[e]pyrrolo[1,2-a][1,4]diazacyclopentadecin-6-yl)carbamate]	1010 to 5000 pM
CCOc1ccc2nc(C(F)(F)F)c(O[C@@H]3C[C@H]4C(=O)N[C@]5(C(=O)NS(=O)(=O)C6(C)CC6)C[C@H]5/C=C\CC[C@H](C)C[C@@H](COC)[C@H](NC(=O)OC(C)(C)C(C)(F)F)C(=O)N4C3)nc2c1 [Compound 1051, 3,3-difluoro-2-methylbutan-2-yl ((2R,6S,7R,9S,13aS,14aR,16aS,Z)-2-((7-ethoxy-3-(trifluoromethyl)quinoxalin-2-yl)oxy)-7-(methoxymethyl)-9-methyl-14a-(((1-methylcyclopropyl)sulfonyl)carbamoyl)-5,16-dioxo-1,2,3,5,6,7,8,9,10,11,13a,14,14a,15,16,16a-hexadecahydrocyclopropa[e]pyrrolo[1,2-a][1,4]diazacyclopentadecin-6-yl)carbamate]	1010 to 5000 pM
COC[C@@H]1C[C@H](C)CC/C=C\[C@@H]2C[C@@]2(C(=O)NS(=O)(=O)C2(C)CC2)NC(=O)[C@@H]2C[C@@H](Oc3nc4cc(OC(C)C)ccc4nc3C(F)(F)F)CN2C(=O)[C@H]1NC(=O)OC(C)(C)C(F)(F)F [Compound 1058, 1,1,1-trifluoro-2-methylpropan-2-yl ((2R,6S,7R,9R,13aS,14aR,16aS,Z)-2-((7-isopropoxy-3-(trifluoromethyl)quinoxalin-2-yl)oxy)-7-(methoxymethyl)-9-methyl-14a-(((1-methylcyclopropyl)sulfonyl)carbamoyl)-5,16-dioxo-1,2,3,5,6,7,8,9,10,11,13a,14,14a,15,16,16a-hexadecahydrocyclopropa[e]pyrrolo[1,2-a][1,4]diazacyclopentadecin-6-yl)carbamate]	100 to 500 pM
COC[C@@H]1C[C@H](C)CC/C=C\[C@@H]2C[C@@]2(C(=O)NS(=O)(=O)C2(C)CC2)NC(=O)[C@@H]2C[C@@H](Oc3nc4cc(OC(C)C)ccc4nc3C(F)(F)F)CN2C(=O)[C@H]1NC(=O)OC(C)(C)C(C)(F)F [Compound 1056, 3,3-difluoro-2-methylbutan-2-yl ((2R,6S,7R,9R,13aS,14aR,16aS,Z)-2-((7-isopropoxy-3-(trifluoromethyl)quinoxalin-2-yl)oxy)-7-(methoxymethyl)-9-methyl-14a-(((1-methylcyclopropyl)sulfonyl)carbamoyl)-5,16-dioxo-1,2,3,5,6,7,8,9,10,11,13a,14,14a,15,16,16a-hexadecahydrocyclopropa[e]pyrrolo[1,2-a][1,4]diazacyclopentadecin-6-yl)carbamate]	100 to 500 pM
